Measured values published in US9856279B2 (AGIOS PHARMACEUTICALS, INC, priority 2011, dated 2018).

Key:
[1] = system: HT1080 cells; assay: Cellular assay for IDH1m inhibitors: inhibition of 2-HG production (LC-MS, 48 hours) in HT1080 cells; type: cell-based; details: Homo sapiens, HT-1080; inhibition of 2-HG production, HT1080 cells; read-out: HT1080 IC50
Procedure, shortened: (§1)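 HT1080 or U87MG cells were seeded at 5000/well in DMEM with 10% FBS, incubated overnight, then treated with compounds (0.2% DMSO final) for 48 h. Medium 2-HG was quantified by LC-MS, and IC50 was taken as the concentration reducing 2-HG by 50% versus DMSO control.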

[2] = system: U87MG cells; assay: Cellular assay for IDH1m inhibitors: inhibition of 2-HG production (LC-MS, 48 hours) in U87MG cells; type: cell-based; details: Homo sapiens, U-87 MG, inhibition of 2-HG production, U87R132H cells; read-out: U87R132H IC50
Procedure, shortened: as §1

[3] = molecular target: IDH1 R132H (Homo sapiens, UniProt O75874, R132H); assay: Assay for IDH1 R132H inhibitors (NADPH/aKG, resazurin detection); type: biochemical; details: enzyme assay of Example 12; read-out: IDH1R132H IC50
Chain of IDH1 R132H (O75874 whole entry R132H): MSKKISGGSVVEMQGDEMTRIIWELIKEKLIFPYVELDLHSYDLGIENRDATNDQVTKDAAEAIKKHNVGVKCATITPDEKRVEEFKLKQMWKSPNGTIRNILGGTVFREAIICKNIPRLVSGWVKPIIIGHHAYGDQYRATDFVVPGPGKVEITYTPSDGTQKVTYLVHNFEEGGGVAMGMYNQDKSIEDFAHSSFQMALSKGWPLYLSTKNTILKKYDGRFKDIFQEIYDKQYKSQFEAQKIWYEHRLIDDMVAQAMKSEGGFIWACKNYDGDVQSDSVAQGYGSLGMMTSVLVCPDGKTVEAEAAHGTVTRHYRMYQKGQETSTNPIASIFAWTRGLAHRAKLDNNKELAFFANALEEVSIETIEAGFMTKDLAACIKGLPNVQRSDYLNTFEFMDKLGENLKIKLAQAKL
Procedure, shortened: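 Read-out is resorufin fluorescence (Ex544/Em590) 5 min after adding a 30 μM resazurin detection mix. Before that, mutant enzyme (0.2 μg/ml in its mix) ran 50 min at room temperature with compound, 8 uM NADPH and 2 mM aKG (mix levels) in Tris pH 7.5 with NaCl, MgCl2, BSA.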

Compound: C=Cc1cc(-c2cc(C#N)c(N3CCN(C(=O)CC[C@@H]4CCO4)[C@H](C4CC4)C3)nc2C2CC2)ccn1 [Compound 794, 2-cyclopropyl-6-((R)-3-cyclopropyl-4-(3-((R)-oxetan-2-yl)propanoyl)piperazin-1-yl)-2′-vinyl-[3,4′-bipyridine]-5-carbonitrile]
- IC50 [1]: < 0.5 µM
- IC50 [2]: < 0.5 µM
- IC50 [3]: < 0.5 µM

Compound: C=Cc1cnnc(-c2c(C3CC3)nc(N3CCN(C(=O)CCO)[C@H](C(C)C)C3)c(C#N)c2C)c1 [Compound 784, (R)-6-cyclopropyl-2-(4-(3-hydroxypropanoyl)-3-isopropylpiperazin-1-yl)-4-methyl-5-(5-vinylpyridazin-3-yl)nicotinonitrile]
- IC50 [1]: < 0.5 µM
- IC50 [2]: < 0.5 µM
- IC50 [3]: < 0.5 µM

Compound: C=CS(=O)(=O)N(C)c1cccc(-c2cc(C#N)c(N3CCN(C(=O)CCOC)[C@H](C)C3)nc2C2CC2)c1 [Compound 446]
- IC50 [1]: < 0.5 µM
- IC50 [2]: 1 to 10 µM
- IC50 [3]: < 0.5 µM

Compound: C=Cc1cc(-c2cc(C#N)c(N3CCN(C(=O)C[C@H]4CCO4)[C@H](C4CC4)C3)nc2C2CC2)ccn1 [Compound 752, 2-cyclopropyl-6-((R)-3-cyclopropyl-4-(2-((R)-oxetan-2-yl)acetyl)piperazin-1-yl)-2′-vinyl-3,4′-bipyridine-5-carbonitrile]
- IC50 [1]: < 0.5 µM
- IC50 [2]: < 0.5 µM
- IC50 [3]: < 0.5 µM

Compound: COCCC(=O)N1CCN(c2nc(C3CC3)c(OCc3ccc(C(=O)OC)cc3)cc2C#N)C[C@H]1C [Compound 293, (R)-methyl 4-((5-cyano-2-cyclopropyl-6-(4-(3-methoxypropanoyl)-3-methylpiperazin-1-yl)pyridin-3-yloxy)methyl)benzoate]
- IC50 [1]: 1 to 10 µM
- IC50 [2]: 1 to 10 µM
- IC50 [3]: < 0.5 µM

Compound: C=Cc1cc(Nc2cc(C#N)c(N3CCN(C(=O)CCO)[C@H](C)C3)nc2C2CC2)ncn1 [Compound 617, (R)-6-cyclopropyl-2-(4-(3-hydroxypropanoyl)-3-methylpiperazin-1-yl)-5-(6-vinylpyrimidin-4-ylamino)nicotinonitrile]
- IC50 [1]: < 0.5 µM
- IC50 [2]: < 0.5 µM
- IC50 [3]: < 0.5 µM

Compound: COC[C@@H]1C[C@@H]1C(=O)N1CCN(c2nc(C3CC3)c(-c3cccc4cnccc34)cc2C#N)C[C@H]1C1CC1 [Compound 480, 6-cyclopropyl-2-((R)-3-cyclopropyl-4-((1S,2R)-2-(methoxymethyl)cyclopropanecarbonyl)piperazin-1-yl)-5-(isoquinolin-5-yl)nicotinonitrile]
- IC50 [1]: < 0.5 µM
- IC50 [2]: < 0.5 µM
- IC50 [3]: < 0.5 µM

Compound: COCCC(=O)N1CCN(c2nc(C3CC3)c(Oc3cc(Cl)ncn3)cc2C#N)C[C@H]1C [Compound 666, (R)-5-((6-chloropyrimidin-4-yl)oxy)-6-cyclopropyl-2-(4-(3-methoxypropanoyl)-3-methylpiperazin-1-yl)nicotinonitrile]
- IC50 [1]: < 0.5 µM
- IC50 [2]: < 0.5 µM
- IC50 [3]: < 0.5 µM

Compound: C=Cc1cc(-c2cc(C#N)c(N3CCN(C(=O)CCOC)[C@H](C)C3)nc2C2CC2)c2ccccc2n1 [Compound 592, (R)-6-cyclopropyl-2-(4-(3-methoxypropanoyl)-3-methylpiperazin-1-yl)-5-(2-vinylquinolin-4-yl)nicotinonitrile]
- IC50 [1]: < 0.5 µM
- IC50 [2]: < 0.5 µM
- IC50 [3]: < 0.5 µM

Compound: N#Cc1cc(-c2cccc3cnccc23)c(C2CC2)nc1N1CCN(C(=O)c2ccoc2)[C@H](C2CC2)C1 [Compound 488, (R)-6-cyclopropyl-2-(3-cyclopropyl-4-(furan-3-carbonyl)piperazin-1-yl)-5-(isoquinolin-5-yl)nicotinonitrile]
- IC50 [1]: < 0.5 µM
- IC50 [2]: 0.5 to 1 µM
- IC50 [3]: < 0.5 µM

Compound: C=Cc1cc(-c2cc(C#N)c(N3CCN(C(=O)COC)[C@H](C(C)C)C3)nc2C2CC2)c2ccncc2n1 [Compound 741, (R)-6-cyclopropyl-2-(3-isopropyl-4-(2-methoxyacetyl)piperazin-1-yl)-5-(2-vinyl-1,7-naphthyridin-4-yl)nicotinonitrile]
- IC50 [1]: < 0.5 µM
- IC50 [2]: < 0.5 µM
- IC50 [3]: < 0.5 µM

Compound: C=Cc1cc(Nc2cc(C#N)c(N3CCN(C(=O)CCO)[C@H](C)C3)nc2C2CC2)c2ccncc2n1 [Compound 698, (R)-6-cyclopropyl-2-(4-(3-hydroxypropanoyl)-3-methylpiperazin-1-yl)-5-((2-vinyl-1,7-naphthyridin-4-yl)amino)nicotinonitrile]
- IC50 [1]: < 0.5 µM
- IC50 [2]: < 0.5 µM
- IC50 [3]: < 0.5 µM

Compound: C=Cc1cc(-c2cc(C#N)c(N3CCN(C(=O)CCO)[C@@H](C4CC4)C3)nc2C2CC2)ccn1 [Compound 587, (S)-2-cyclopropyl-6-(3-cyclopropyl-4-(3-hydroxypropanoyl)piperazin-1-yl)-2′-vinyl-[3,4′-bipyridine]-5-carbonitrile]
- IC50 [1]: < 0.5 µM
- IC50 [2]: < 0.5 µM
- IC50 [3]: < 0.5 µM

Compound: C=CS(=O)(=O)N(c1cccc(-c2c(C3CC3)nc(N3CCN(C(=O)C4CC4)[C@H](C4CC4)C3)c(C#N)c2C)c1)S(=O)(=O)C=C [Compound 463, (R)—N-(3-(5-cyano-6-(4-(cyclopropanecarbonyl)-3-cyclopropylpiperazin-1-yl)-2-cyclopropyl-4-methylpyridin-3-yl)phenyl)-N-(vinylsulfonyl)ethenesulfonamide]
- IC50 [1]: 1 to 10 µM
- IC50 [2]: 1 to 10 µM
- IC50 [3]: < 0.5 µM

Compound: C=Cc1ccc2c(-c3cc(C#N)c(N4CCN(C(=O)C5CC5)[C@H](C5CC5)C4)nc3C3CC3)cccc2n1 [Compound 475, (R)-2-(4-(cyclopropanecarbonyl)-3-cyclopropylpiperazin-1-yl)-6-cyclopropyl-5-(2-vinylquinolin-5-yl)nicotinonitrile]
- IC50 [1]: 0.5 to 1 µM
- IC50 [2]: < 0.5 µM
- IC50 [3]: < 0.5 µM

Compound: C=Cc1cc(-c2cc(C#N)c(N3CCN(C(=O)CCC4CCCO4)[C@H](C4CC4)C3)nc2C2CC2)ccn1 (stereo partly drawn) [Compound 800, 2-cyclopropyl-6-((3R)-3-cyclopropyl-4-(3-(tetrahydrofuran-2-yl)propanoyl)piperazin-1-yl)-2′-vinyl-3,4′-bipyridine-5-carbonitrile]
- IC50 [1]: < 0.5 µM
- IC50 [2]: < 0.5 µM
- IC50 [3]: < 0.5 µM

Compound: COCCC(=O)N1CCN(c2nc(C3CC3)c(-c3ccc4scnc4c3)cc2C#N)C[C@H]1C [Compound 352, (R)-5-benzothiazol-5-yl-6-cyclopropyl-2-[4-(3-methoxy-propionyl)-3-methyl-piperazin-1-yl]-nicotinonitrile]
- IC50 [1]: 1 to 10 µM
- IC50 [2]: 0.5 to 1 µM
- IC50 [3]: < 0.5 µM

Compound: COCCC(=O)N1CCN(c2nc(C3CC3)c(-c3cccc4ncccc34)cc2C#N)C[C@H]1C [Compound 288, (R)-6-cyclopropyl-2-(4-(3-methoxypropanoyl)-3-methylpiperazin-1-yl)-5-(quinolin-5-yl)nicotinonitrile]
- IC50 [1]: < 0.5 µM
- IC50 [2]: < 0.5 µM
- IC50 [3]: < 0.5 µM

Compound: COCCC(=O)N1CCN(c2nc(C3CC3)c(-c3ccc(F)cc3F)c(C)c2C#N)C[C@H]1C [Compound 264, 6-cyclopropyl-5-(2,4-difluorophenyl)-2-((R)-4-(3-methoxypropanoyl)-3-methylpiperazin-1-yl)-4-methylnicotinonitrile]
- IC50 [1]: 1 to 10 µM
- IC50 [2]: 1 to 10 µM
- IC50 [3]: 0.5 to 1 µM

Compound: C=Cc1cc(-c2cc(C#N)c(N3CCN(C(=O)COC)[C@H](C(C)C)C3)nc2C2CC2)ccn1 [Compound 726, (R)-2-cyclopropyl-6-(3-isopropyl-4-(2-methoxyacetyl)piperazin-1-yl)-2′-vinyl-3,4′-bipyridine-5-carbonitrile]
- IC50 [1]: < 0.5 µM
- IC50 [2]: < 0.5 µM
- IC50 [3]: < 0.5 µM
